In article PMC12003167 (Nature, 2025):

Assays:
[1] = target: T1, chanoclavine synthase (EasC) from Claviceps fusiformis (EasCCf) (Claviceps fusiformis, UniProt A8C7R6); test: PCC conversion assay by LC–MS; assay type: biochemical
T1 sequence (A8C7R6 1-479): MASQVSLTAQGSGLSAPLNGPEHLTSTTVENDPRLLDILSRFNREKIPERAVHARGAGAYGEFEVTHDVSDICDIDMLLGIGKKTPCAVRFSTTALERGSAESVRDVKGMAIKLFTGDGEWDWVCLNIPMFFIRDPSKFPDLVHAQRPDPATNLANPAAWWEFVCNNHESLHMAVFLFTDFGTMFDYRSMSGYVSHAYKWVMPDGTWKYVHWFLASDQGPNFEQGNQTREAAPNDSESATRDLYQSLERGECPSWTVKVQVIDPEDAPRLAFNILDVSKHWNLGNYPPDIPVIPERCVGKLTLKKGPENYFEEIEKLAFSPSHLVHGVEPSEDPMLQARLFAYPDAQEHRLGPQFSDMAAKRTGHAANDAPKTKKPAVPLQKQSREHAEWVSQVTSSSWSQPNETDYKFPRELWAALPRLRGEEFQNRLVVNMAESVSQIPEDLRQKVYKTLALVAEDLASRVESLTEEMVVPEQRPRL

cryo-EM structure = target: the molecule itself; test: cryo-EM structure

For `NO` [NH2OH, hydroxylamine], the IC50 [1] was 720 µM.

B1: chanoclavine synthase (EasC) from Claviceps fusiformis (enzyme)
chain: T1 sequence (A8C7R6 1-479)
B1 was tested, and the “stoichiometry N” value (cryo-EM structure) was 2.
